Columns and labels:
CR-CdR deaminase = assay: in vitro
Procedure: (§1) Partially purified CR-CdR deaminase is prepared from two different sources: (1) human liver, following the procedure of Wentworth and Wolfender, Biochemistry, vol. 14, p. 5099 (1975), and (2) blast cells of patients with acute myelocytic leukemia, using ammonium sulfate fractionation and DEAE column chromatography. The assay procedure is described by Wentworth and Wolfander, ibid.

L-1210 = assay: In vitro cytotoxicity testing (growth inhibition, Trypan Blue exclusion), L-1210; type: cell-based; conditions: Mus musculus, L1210, 40 hr, 37 degrees C, read-out: Concentration for 50% Inhibition of Growth
Procedure: (§2) Cytarazid, the β-anomer of the nucleoside prepared in Example 3 herein, and cytaramin, the nucleoside prepared in Example 4 herein, are evaluated in vitro for growth inhibiting potency against mammalian cancer cells by a micro technique, using the culture conditions described by Bobek et al. in J. Med. Chem., vol. 20, p. 458 (1977), whereby 0.5 ml. aliquots of medium (RPMI 1640.div.10% fetal calf serum) containing the test compound are introduced into 16×125 mm. screw cap culture tubes, followed by 0.5 ml. portions of the medium containing 1×10^5 mammalian cancer cells. The cultures are incubated at 37 degrees C. for 40 hr., after which time the viable cells are counted by Trypan Blue exclusion. During this time the cell number in the controls increases about four to nine-fold with an average cell viability of 99%. The test results are as follows:
(§3) Concentration for 50% Inhibition of Growth
(§4) Cell Line Cytarazid Cytaramin

[1] = test system: Herpes Simplex type I virus; assay: In vitro antiviral testing, plaque reduction, Herpes Simplex type I; type: cell-based; conditions: for antiviral properties: plaque reduction
Text: (§5) Cytarazid and cytaramin, when tested in vitro against Herpes Simplex types I and II viruses, utilizing the plaque reduction technique described by Dulbecco, Proceedings National Academy of Sciences, vol. 38, p.

[2] = test system: Herpes Simplex type II virus; assay: In vitro antiviral testing, plaque reduction, Herpes Simplex type II; type: cell-based; conditions: for antiviral properties: plaque reduction
Text: as §5

L-1210 leukemic cells = assay: In vivo cytotoxicity testing, survival of mice inoculated with L-1210 leukemic cells; set-up: species or system DBA/2 HaDD mice; conditions: control 8.7 days
Procedure: Cytarazid and cytaramin are evaluated in vivo for growth inhibitory potency against leukemic cells by intraperitoneally inoculating DBA/2 HaDD mice with an IP-PBS saline suspension of 1×10^6 L-1210 leukemic cells, waiting 24 hrs., and then administering the test compound intraperitoneally in 0.2 ml. of saline-phospate buffer solution (pH 7.0).

HeLa = assay: In vitro cytotoxicity testing (growth inhibition, Trypan Blue exclusion), HeLa; type: cell-based; conditions: Homo sapiens, 40 hr, 37 degrees C, read-out: Concentration for 50% Inhibition of Growth
Procedure: as §2, §3, §4

[3] = test system: Molt 4F (T-type from lymphoblastic leukemia); assay: In vitro cytotoxicity testing (growth inhibition, Trypan Blue exclusion), Molt 4F; type: cell-based; conditions: Homo sapiens, 40 hr, 37 degrees C, read-out: Concentration for 50% Inhibition of Growth
Procedure: as §2, §3, §4

in vitro = conditions: human, cr-cdr deaminase
Procedure: as §1

[4] = 50 μM, read-out: inhibition of the virus (log)

SMILES	deamination detected in 8 hrs (CR-CdR deaminase)	IC50 (L-1210) [nM]	antiviral properties [1]	antiviral properties [2]	Survival Time (L-1210 leukemic cells; 75 mg/kg IP twice per day 8 hrs apart for 2 days beginning 24 hrs after tumor inoculation) [days]	IC50 (HeLa) [nM]	IC50 [3] [nM]	inhibition at 50 µM ([1]; 50 μM) [%]	log reduction at 50 µM [1, 4]	inhibition at 50 µM ([2]; 50 μM) [%]	log reduction at 50 µM [2, 4]	Survival Time (L-1210 leukemic cells; 40 mg/kg IP twice per day 8 hrs apart for 2 days beginning 24 hrs after tumor inoculation) [days]	half-life (in vitro) [min]
Nc1ccn([C@@H]2O[C@H](CO)[C@@H](O)[C@@H]2N)c(=O)n1 [Cytaramin, 1-(2-amino-2-deoxy-β-D-arabinofuranosyl) cytosine]	no significant deamination	4000	significant antiviral properties	significant antiviral properties	> 120	30000	–	–	–	–	–	–	–
[N-]=[N+]=N[C@H]1[C@H](O)[C@@H](CO)O[C@H]1n1ccc(N)nc1=O [Cytarazid, 1-(2-azido-2-deoxy-β-D-arabinofuranosyl) cytosine]	no significant deamination	600	significant antiviral properties	significant antiviral properties	–	200	70	> 99.9	> 3	> 99	> 2	> 120	–
Nc1ccn([C@@H]2O[C@H](CO)[C@@H](O)[C@@H]2O)c(=O)n1 [cytarabine, reference compound]	–	–	–	–	–	–	–	–	–	–	–	–	45

Reference: US4230698A, “2-Substituted arabinofuranosyl nucleosides and nucleotides” (Research Corporation, priority 1978, dated 1980)
